# Measurements as given in PubChem BioAssay (NCI).
#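 Where inhibition never reached the appropriate level, the endpoint shown equals the highest concentration tested. Otherwise, values were interpolated linearly from a five-concentration, 48-hour dose response in 96-well plates. The concentration for full growth arrest is given as TGI.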
# Test system: HCT-116 colon
# Assay: DTP human tumour cell line panel, 48 h
row,Compound,TGI [µM]
1,CC(=O)N1C(Nc2nccs2)CCN1c1ccccc1 (configuration not stated),> 10
2,Cc1cc(NS(=O)(=O)c2ccc(N=[N+]([O-])c3ccc(S(=O)(=O)Nc4cc(C)on4)cc3)cc2)no1,> 100
3,Cc1ccc(S(=O)(=O)N/N=C2/CCC3(O)CC2(C)CCC2[C@H]3CC2(C)C)cc1 (some centres not stated),75.7
4,CCCCCCCCCCCCOCC1(COCCCCCCCCCCCC)COC(c2ccc(N)cc2)OC1,> 100
5,CC(C)OP(=O)(OC(C)C)C(C)(C)O,> 100
6,Cc1cn(C2CC(N=[N+]=[N-])C(COP(=O)(O)OCC3OC(n4cc(F)c(=O)[nH]c4=O)CC3O)O2)c(=O)[nH]c1=O (configuration not stated),> 100
7,NC(=O)[N+](=CC(=S)Nc1ccccc1Cl)C(N)=O,> 100

# Test system: OVCAR-4 ovarian
# Assay: DTP human tumour cell line panel, 48 h
row,Compound,TGI [µM]
1,CCCCCCCCCCCCCCCCNC(=O)/C(=C\c1ccc(Cl)c(Cl)c1)NC(=O)c1ccccc1,84.4
2,O=C(Nc1ccccc1)OCCN=C1c2ccccc2CCc2ccccc21,> 100
3,COc1cc2cc(C(=O)N3CC(CCl)c4ccc([N+](C)(C)Cc5ccccc5[N+](=O)[O-])cc43)[nH]c2c(OC)c1OC (configuration not stated),12.9
4,CC(C)[C@H]1NC(=O)[C@H]2N=C(S[C@H]2C)[C@@H]2CCCN2C(=O)[C@H](Cc2ccccc2)NC(=O)[C@@H]2CSC(=N2)[C@@H](Cc2ccccc2)NC(=O)[C@@H]2CSC1=N2,> 50
5,COC(=O)/C=C/[C@@H]1[C@H](C)N1S(=O)(=O)c1ccc(C)cc1 (some centres not stated),> 100
6,COc1cc([C@@H]2c3cc4c(cc3[C@@H](Nc3ccc(Cl)cc3C(=O)c3ccccc3)[C@H]3COC(=O)[C@H]23)OCO4)cc(OC)c1OC,> 100
7,O=C1Oc2ccccc2C(=O)/C1=C/N1C(=O)CNC1=S,> 100
8,Cc1nn(C(=O)c2ccncc2)c2c1C(c1ccccc1[N+](=O)[O-])SC(N)=N2 (configuration not stated),> 10
9,Cn1nnc2c3c(N(CCO)CCO)ccnc3ccc21,> 100
10,Cc1ccc(S(=O)(=O)N2CCSCCSCCSCCN(S(=O)(=O)c3ccc(C)cc3)CC2)cc1,> 100
11,CCCc1nc2c(n1CC)C(=O)c1ccccc1C2=O,> 100
12,C1CCCN(NC2=NCCO2)CC1,> 100
13,O=C1NCN(c2ccccc2)C12CCN(CC1COc3ccccc3O1)CC2 (configuration not stated),> 100
14,CCOc1ccc(NC(=O)C(=O)Nn2c(N)nnc2N)cc1,> 100
15,O=C1OC([C@H](O)c2cccnc2)c2ccccc21 (some centres not stated),> 10
16,CC(C)(C)O/N=C/c1cc(NC(=S)c2ccsc2)ccc1Cl,28.7
17,C=CCN1CCC(c2cc(C(=O)OCC)[nH]c2-c2cc(C)no2)C1=O (configuration not stated),> 100
18,CC(=O)N1C(Nc2nccs2)CCN1c1ccccc1 (configuration not stated),> 10
19,Cc1cc(NS(=O)(=O)c2ccc(N=[N+]([O-])c3ccc(S(=O)(=O)Nc4cc(C)on4)cc3)cc2)no1,> 100
20,Cc1ccc(S(=O)(=O)N/N=C2/CCC3(O)CC2(C)CCC2[C@H]3CC2(C)C)cc1 (some centres not stated),> 100
21,CCCCCCCCCCCCOCC1(COCCCCCCCCCCCC)COC(c2ccc(N)cc2)OC1,> 100
22,CC(C)OP(=O)(OC(C)C)C(C)(C)O,> 100
23,NC(=O)[N+](=CC(=S)Nc1ccccc1Cl)C(N)=O,> 100

# Test system: HOP-92 NSCLC
# Assay: DTP human tumour cell line panel, 48 h
row,Compound,TGI [µM]
1,CCCCCCCCCCCCCCCCNC(=O)/C(=C\c1ccc(Cl)c(Cl)c1)NC(=O)c1ccccc1,34.7
2,COc1cc2cc(C(=O)N3CC(CCl)c4ccc([N+](C)(C)Cc5ccccc5[N+](=O)[O-])cc43)[nH]c2c(OC)c1OC (configuration not stated),> 29.8
3,Cc1nn(C(=O)c2ccncc2)c2c1C(c1ccccc1[N+](=O)[O-])SC(N)=N2 (configuration not stated),> 10
4,Cc1ccc(S(=O)(=O)N2CCSCCSCCSCCN(S(=O)(=O)c3ccc(C)cc3)CC2)cc1,> 100
5,CCOc1ccc(NC(=O)C(=O)Nn2c(N)nnc2N)cc1,> 100
6,O=C1OC([C@H](O)c2cccnc2)c2ccccc21 (some centres not stated),> 10
7,CC(C)(C)O/N=C/c1cc(NC(=S)c2ccsc2)ccc1Cl,37.7
8,CC(=O)/C(=C\I)c1ccccc1,4.74
9,C=CCN1CCC(c2cc(C(=O)OCC)[nH]c2-c2cc(C)no2)C1=O (configuration not stated),> 100
10,CC(=O)N1C(Nc2nccs2)CCN1c1ccccc1 (configuration not stated),> 10
11,Cc1cc(NS(=O)(=O)c2ccc(N=[N+]([O-])c3ccc(S(=O)(=O)Nc4cc(C)on4)cc3)cc2)no1,> 100
12,Cc1ccc(S(=O)(=O)N/N=C2/CCC3(O)CC2(C)CCC2[C@H]3CC2(C)C)cc1 (some centres not stated),87.6
13,CC(C)OP(=O)(OC(C)C)C(C)(C)O,> 100
14,NC(=O)[N+](=CC(=S)Nc1ccccc1Cl)C(N)=O,> 100

# Test system: HS 578T breast
# Assay: DTP human tumour cell line panel, 48 h
row,Compound,TGI [µM]
1,CCCCCCCCCCCCCCCCNC(=O)/C(=C\c1ccc(Cl)c(Cl)c1)NC(=O)c1ccccc1,> 100
2,O=C(Nc1ccccc1)OCCN=C1c2ccccc2CCc2ccccc21,51.5
3,COc1cc2cc(C(=O)N3CC(CCl)c4ccc([N+](C)(C)Cc5ccccc5[N+](=O)[O-])cc43)[nH]c2c(OC)c1OC (configuration not stated),11.7
4,CC(C)[C@H]1NC(=O)[C@H]2N=C(S[C@H]2C)[C@@H]2CCCN2C(=O)[C@H](Cc2ccccc2)NC(=O)[C@@H]2CSC(=N2)[C@@H](Cc2ccccc2)NC(=O)[C@@H]2CSC1=N2,47
5,COC(=O)/C=C/[C@@H]1[C@H](C)N1S(=O)(=O)c1ccc(C)cc1 (some centres not stated),> 100
6,COc1cc([C@@H]2c3cc4c(cc3[C@@H](Nc3ccc(Cl)cc3C(=O)c3ccccc3)[C@H]3COC(=O)[C@H]23)OCO4)cc(OC)c1OC,0.926
7,O=C1Oc2ccccc2C(=O)/C1=C/N1C(=O)CNC1=S,> 100
8,Cc1nn(C(=O)c2ccncc2)c2c1C(c1ccccc1[N+](=O)[O-])SC(N)=N2 (configuration not stated),> 10
9,Cn1nnc2c3c(N(CCO)CCO)ccnc3ccc21,> 100
10,Cc1ccc(S(=O)(=O)N2CCSCCSCCSCCN(S(=O)(=O)c3ccc(C)cc3)CC2)cc1,> 100
11,CCCc1nc2c(n1CC)C(=O)c1ccccc1C2=O,> 100
12,C1CCCN(NC2=NCCO2)CC1,> 100
13,O=C1NCN(c2ccccc2)C12CCN(CC1COc3ccccc3O1)CC2 (configuration not stated),71.8
